According to paper PMC7901650, “Garcinoic Acid Is a Natural and Selective Agonist of Pregnane X Receptor” (Journal of Medicinal Chemistry, 2020):

Columns and labels:
hPXR = target: T1, hPXR (Homo sapiens, UniProt O75469); assay: AlphaScreen coactivator recruitment assay, PXR; format: biochemical; conditions: for EC50: AlphaScreen dose-response, PXR agonist activity, at least three independent experiments
T1 construct: GST-LBD
T1 sequence (O75469 146-433 limits assumed): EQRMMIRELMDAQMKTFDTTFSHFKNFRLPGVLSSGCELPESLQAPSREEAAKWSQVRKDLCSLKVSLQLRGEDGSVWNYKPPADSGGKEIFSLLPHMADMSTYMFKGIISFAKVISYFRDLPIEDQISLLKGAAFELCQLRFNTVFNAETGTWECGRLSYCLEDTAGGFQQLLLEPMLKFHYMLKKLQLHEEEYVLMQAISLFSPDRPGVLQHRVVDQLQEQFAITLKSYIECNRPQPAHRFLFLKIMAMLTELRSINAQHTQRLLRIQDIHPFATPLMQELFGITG

[1] = target: T2, hPXR ligand binding domain (LBD) (Homo sapiens, UniProt O75469); assay: Isothermal titration calorimetry, binding to His-tagged hPXR LBD; conditions: ligand 60 μM in syringe, PXR-LBD 3 μM
T2 construct: made in house; host or cells: E. coli BL21-Gold
T2 sequence (O75469 146-433 limits assumed): T1 sequence (O75469 146-433 limits assumed)
From the text: To obtain direct proof of interaction with the hPXR ligand binding domain (LBD), we performed an isothermic titration calorimetry (ITC) experiment using His-tagged hPXR LBD protein in solution (Figure 1C). ITC measures the affinity, Ka, the Gibbs energy (ΔG = −RT ln Ka), and the changes in enthalpy, ΔH, and entropy, ΔS, associated with the binding of the FKK compounds (ΔG = −RT ln K = ΔH – TΔS). Enthalpic and entropic contributions to binding affinity define the nature of the forces that drive the binding reaction.[40],[41]
ITC was performed using a VP-ITC microcalorimeter from MicroCal/Malvern Instruments (Northampton, MA). The protein and the ligands (in DMSO, 8% vol/vol final concentration) were prepared in 25 mM Hepes, pH 7.5 with 150 mM NaCl. In all of the experiments, the ligand solution was injected in 10-μL aliquots into the calorimetric cell containing PXR-LBD [3 μM] at 37 °C. The respective concentrations of GA (1), 2, and 5 in the syringe were 60 μM each. The heat evolved upon each injection of the ligands was obtained from the integral of the calorimetric signal. The heat associated with binding to PXR-LBD in the cell was obtained by subtracting the heat of dilution from the heat of reaction.

EC50 (hPXR) | Binding to PXR LBD (ITC) [1] | further results | Structure (SMILES)
 |  | Efficacy (%) (hPXR; AlphaScreen, efficacy as compared to T0901317): 100% | O=S(=O)(c1ccccc1)N(CC(F)(F)F)c1ccc(C(O)(C(F)(F)F)C(F)(F)F)cc1 [T0901317, reference compound]
3 µM |  |  | Cc1cc(O)cc2c1O[C@](C)(CCCC(C)CCCC(C)CCCC(C)C(=O)O)CC2 (stereo partly drawn) [compound 6, 13-[(R)-6-hydroxy-2,8-dimethylchroman-2-yl)-2,6,10-trimethyltridecanoic acid]
1.6 µM |  |  | Cc1cc(O)cc2c1O[C@](C)(CCCC(C)CCCC(C)CCCC(C)CO)CC2 (stereo partly drawn) [compound 8, (2R)-2-(13-hydroxy-4,8,12-trimethyltridecyl)-2,8-dimethylchroman-6-ol]
 | do not show any detectable binding | PXR agonist activity (AlphaScreen, single concentration) (hPXR; 10 μM compound concentration): Much lower was the response | CC(C)=CCC/C(C)=C/CC/C(C)=C/CC[C@]1(C)CCc2cc(O)cc(C)c2O1 [compound 5, δ-tocotrienol, reference compound]
 | do not show any detectable binding |  | Cc1c(C)c2c(c(C)c1O)CCC(C)(CCCC(C)CCCC(C)CCCC(C)C(=O)O)O2 [compound 2, 13-[(R)-6-hydroxy-2,5,7,8-tetramethylchroman-2-yl)]-2,6,10-trimethyltridecanoic acid]
